Key:
human α-amylase = target: T1, human α-amylase (Homo sapiens, UniProt P04746); assay: α-amylase inhibitor screening kit assay; assay type: biochemical; conditions: mean ± SD, triplicate; tested at 1, 5, 10, 25, 50 µM
T1 construct: purchased Abcam ab283391
T1 sequence (P04746 16-511): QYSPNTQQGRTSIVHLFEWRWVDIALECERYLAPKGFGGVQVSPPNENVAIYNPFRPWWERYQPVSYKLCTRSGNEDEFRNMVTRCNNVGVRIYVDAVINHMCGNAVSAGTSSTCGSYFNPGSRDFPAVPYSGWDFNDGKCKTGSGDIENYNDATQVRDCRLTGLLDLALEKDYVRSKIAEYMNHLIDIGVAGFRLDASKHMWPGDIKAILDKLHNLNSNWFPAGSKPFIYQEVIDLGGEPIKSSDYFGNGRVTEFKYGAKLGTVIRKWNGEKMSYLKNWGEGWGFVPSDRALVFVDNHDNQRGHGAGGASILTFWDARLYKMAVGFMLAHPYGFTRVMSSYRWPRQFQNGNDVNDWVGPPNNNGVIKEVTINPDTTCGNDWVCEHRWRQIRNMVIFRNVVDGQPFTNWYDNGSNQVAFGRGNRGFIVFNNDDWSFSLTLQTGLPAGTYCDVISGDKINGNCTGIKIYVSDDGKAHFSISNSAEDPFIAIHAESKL
Description: The α-amylase assay was performed in triplicate, using a 96-well plate following the procedure recommended by the manufacturer as outlined in the α-amylase inhibitor Screening Kit (Catalogue No. ab283391; Abcam). […] The average values obtained from the absorbance readings were used to determine the IC50 and standard deviation values in GraphPad prism from nonlinear regression dose–response curves.

[1] = NO free radical scavenging assay (sodium nitroprusside/Griess); conditions: mean ± SD; sodium nitroprusside, Griess reagent, 550 nm
Description: The assay was conducted following the method described in our previous study. A mixture of 10 mM sodium nitroprusside (20 µL), phosphate buffer (5 µL) and the test compound (5 µL) were incubated at 25 °C in a 96-well plate for 2.5 h. After incubation, 20 µL of Griess reagent (1.00 g of sulfanilic acid + 0.10 g naphthylethylene diamine dihydrochloride) was added to the previous mixture and allowed to stand for 30 min. […] Each experiment was performed in triplicate, and the average was taken. The average obtained from the absorbance readings was used to calculate the IC50 values in GraphPad prism from nonlinear regression dose–response curves.

[2] = target: T2, α-Glucosidase type 1 from baker's yeast (Saccharomyces cerevisiae, UniProt P53341); assay: biochemical; conditions: IC50 α-Glucosidase, mean ± SD, triplicate; tested at 1, 5, 10, 25, 50 µM
T2 construct: purchased Sigma Aldrich (Pty) Ltd. G5003
T2 sequence (P53341 whole entry): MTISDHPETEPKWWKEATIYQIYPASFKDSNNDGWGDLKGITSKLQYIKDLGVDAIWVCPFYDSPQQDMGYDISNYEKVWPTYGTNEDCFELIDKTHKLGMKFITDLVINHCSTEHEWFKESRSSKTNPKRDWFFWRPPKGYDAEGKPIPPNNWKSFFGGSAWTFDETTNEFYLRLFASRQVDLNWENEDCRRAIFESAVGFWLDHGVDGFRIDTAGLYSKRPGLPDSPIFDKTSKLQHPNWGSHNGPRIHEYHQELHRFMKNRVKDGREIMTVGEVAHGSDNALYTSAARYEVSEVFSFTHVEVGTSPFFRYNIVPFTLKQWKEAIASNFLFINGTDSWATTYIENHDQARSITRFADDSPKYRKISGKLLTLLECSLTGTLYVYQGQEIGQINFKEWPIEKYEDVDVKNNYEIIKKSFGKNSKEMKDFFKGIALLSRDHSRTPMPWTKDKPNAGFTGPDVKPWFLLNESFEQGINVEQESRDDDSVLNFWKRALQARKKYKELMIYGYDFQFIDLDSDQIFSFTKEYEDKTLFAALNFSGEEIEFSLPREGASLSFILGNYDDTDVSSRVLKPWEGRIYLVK
Description: The assay was conducted in triplicate following a method described in our previous study. […] After pre-incubation, 17 µL of 2 mM PNP-G was added. The absorbances were recorded in a 96-well microplate at 400 nm using an Elisa plate reader (Varioskan Flash, ThermoFischer Scientific, Vantaa, Finland). The average values obtained from the readings were used to determine the IC50 and standard deviation values using a GraphPad Prism software (Version 8, GraphPad Software Inc., San Diego, CA, USA). The average values obtained from the absorbance readings were used to determine the IC50 and standard deviation values in GraphPad prism from nonlinear regression dose–response curves.

[3] = test system: breast cancer (MCF-7) cell line; assay: MTT cytotoxicity assay, MCF-7; conditions: for Cell viability percentage, MCF-7: Table S2; for IC50: Homo sapiens, MCF7, read-out: IC50 MCF-7
[4] = test system: human embryonic kidney (HEK293-T) cell line; assay: MTT cytotoxicity assay, HEK293-T; conditions: Homo sapiens, HEK-293T, read-out: IC50 Hek293-T
Description: (§2) Cells were cultured in sterile Dulbecco’s Minimal Essential Medium (DMEM, Gibco) supplemented with 10% fetal bovine serum (FBS) and 1% penicillin-streptomycin solution. […] Cell counting was carried out using a handheld automated cell counter (Scapter 3.0™, Merck, Burlington, MA, USA) and seeded (1 × 10^4 cells/well) into a 96-well plate. After 24 h, the cells were treated with different concentrations (1, 5, 10, 25 and 50 µM) of the test compounds and reference standards prepared in DMEM. The MTT solution (20 μL) prepared in PBS (5 mg/mL) was added to all the wells, and the plates were incubated for 4 h, followed by 1 h incubation with 100 µL of dimethyl sulfoxide (DMSO) to dissolve the formazan crystals. Untreated cells and 5% DMSO were included in the experiment as negative controls. All experiments were performed in triplicate. The plates were read at 570 nm at a reference wavelength of 630 nm using an ELISA plate reader (Varioskan Flash, ThermoFisher Scientific, Vantaa, Finland). The percentage of cell viability was calculated using the following formula, Cell viability %=At/Ab×100 where At represents the absorbance value of test compound and Ab the absorbance value of the blank. […] The data were expressed as means ± SD.

[5] = MTT cytotoxicity assay, HEK293-T; conditions: human, HEK293-T cells
Description: as §2

[6] = target: superoxide dismutase (SOD); assay: Superoxide dismutase (SOD) inhibitory assay (SOD assay kit-WST); assay type: biochemical; conditions: duplicate; 1-50 µM; 25 °C, 30 min; read-out: IC50 SOD inhibition
Description: The antioxidant activity of the compounds 3a, 3c, 3f, 3i, 3l, 3n and 3p against superoxide radicals was assessed via enzymatic assay in vitro using the SOD assay kit-WST according to the manufacturer’s instructions (Sigma-Aldrich®). The reaction mixtures in the SOD kit were combined with 20 μL of working solution of the samples in a 96-well plate. Plates were gently shaken and then incubated at 25 °C for 30 min. The reference positive control, diphenyleneiodonium (DPI), and the compounds were tested at 01, 5, 10, 25 and 50 µM in duplicates. The inhibition activity of SOD on the reaction of […] generated the superoxide with a tetrazolium salt, which was then determined by measuring the absorbance of the mixtures at a wavelength of 450 nm using an Elisa plate reader (Varioskan Flash, ThermoFisher Scientific, Vantaa, Finland). The SOD activity values obtained used to calculate the percentage of inhibition. % SOD activity=ODx− ODy/ODx ×100% where ODx is the absorbance of the blank (untreated SOD) and ODy is the absorbance of the sample (treated SOD). All tests were performed in duplicate.

[7] = test system: NO generated from nitric oxide synthase (NOS); assay: Inhibitory activity against NO generated from NOS (EnzyChrom kit); assay type: biochemical; conditions: mean ± SD, 1-50 µM
Description: (§1) A nitric oxide synthase (NOS) assay was performed following the procedure recommended by the manufacturer as outlined in the screening kit (Catalogue No. EINO-100; EnzyChrom). Various concentrations (1, 5, 10, 25 and 50 µM) of the compounds 3a, 3c, 3f, 3i, 3l, 3n and 3p and the reference standard, ascorbic acid, were prepared. The enzyme solution (12.5 U/mL NOS, 10 µL), assay buffer (25 µL) and test samples (5 µL) were incubated at room temperature for 15 min. After pre-incubation, 10 µL of reaction mix was added and incubated at 37 °C for 60 min. A 200 µL quantity of NO detection reagent was added, the detection reaction was run at 37 °C for 60 min, and absorbance was determined at a wavelength of 540 nm using an Elisa plate reader (Varioskan Flash, ThermoFisher Scientific, Vantaa, Finland). The average of three readings was used to calculate the NOS percentage inhibition using the following formula: % Inhibition=1−ΔOD Test Compd/ΔOD No Inhibitor ×100%
The IC50 values and standard deviation values were determined from nonlinear regression dose–response curve and compared with the results in GraphPad prism.

[8] = DPPH radical scavenging assay; conditions: mean ± SD; 45 min in the dark; 512 nm
Description: The DPPH radical scavenging assay was conducted following the procedure described in our previous study. The test compounds and ascorbic acid at various concentrations (ranging from 0 µM to 50 µM) in DMSO were mixed with a solution of DPPH (0.20 mM) in methanol and incubated in the dark for 45 min. Five absorbance readings were recorded at 512 nm using an Elisa plate reader (Varioskan Flash, ThermoFisher Scientific, Vantaa, Finland). The experiment was carried out in triplicate, and averaged values from the absorbance readings were used to determine the IC50 and standard deviation values in GraphPad prism from nonlinear regression dose–response curves.

[9] = test system: lung cancer (A549) cell line; assay: MTT cytotoxicity assay, A549; conditions: for Cell viability percentage, A549: Table S3; for IC50: Homo sapiens, A549, read-out: IC50 A549
Description: as §2

[10] = test system: NOS of semipurified enzyme preparation or activated macrophage cytosol; conditions: 30 min. incubation with 10 μM DPI at 37 °C; cited from earlier work
[11] = test system: nitric oxide synthase (NOS); assay: Kinetic study on inhibitory activity of NOS; assay type: biochemical; conditions: seven concentrations 1-10.0 μM; Figure 3; read-out: IC50 NOS inhibition (kinetic study)
Description: as §1, with “2.5, 4.0, 5.5, 7.0, 8.5” for “5, 10, 25”, “10.0” for “50”, “3i” for “3a, 3c, 3f, 3i, 3l, 3n and 3p”, “DPI,” for “ascorbic acid,”, “uL),” for “µL),”, “formula in Section 2.6.3” for “following formula: % Inhibition=1−ΔOD Test Compd/ΔOD No Inhibitor ×100%”

Row | Structure (SMILES) | IC50 (human α-amylase) [µM] | IC50 [1] [µM] | IC50 [2] [µM] | Cell viability percentage, MCF-7 ([3]; Conc. 1 (µM per method)) | Cell viability percentage, MCF-7 ([3]; Conc. 5 (µM per method)) | Cell viability percentage, MCF-7 ([3]; Conc. 10 (µM per method)) | Cell viability percentage, MCF-7 ([3]; Conc. 25 (µM per method)) | Cell viability percentage, MCF-7 ([3]; Conc. 50 (µM per method)) | IC50 [3] [µM] | melting point [°C] | IC50 [4] [µM] | viability at 1 µM [5] [%] | viability at 5 µM [5] [%] | viability at 10 µM [5] [%] | viability at 25 µM [5] [%] | viability at 50 µM [5] [%] | IC50 [6] [µM] | IC50 [7] [µM] | IC50 [8] [µM] | Cell viability percentage, A549 ([9]; Conc. 1 (µM per method)) | further results
1 | CC1=[N+]([O-])C(c2ccc(F)cc2)Nc2c(Br)cc(I)cc21 (stereo not drawn) [Compound 3n] | 4.71 ± 0.01 | 0.88 ± 0.004 | 43.23 ± 0.05 | 34,8969% | 33,2335% | 31,9528% | 31,7365% | 30,1896% | 14.79 ± 0.1 | 125 to 127 | 32.42 ± 0.06 | 75.1 | 70.1 | 54.1 | 39.6 | 20.5 | 6.2 ± 0.12 | 3.5 ± 0.01 | 6.84 ± 0.009 | 79,9753% | Cell viability percentage, A549 ([9]; Conc. 5 (µM per method)): 73,2703%; Cell viability percentage, A549 ([9]; Conc. 10 (µM per method)): 62,0205%; Cell viability percentage, A549 ([9]; Conc. 25 (µM per method)): 43,4807%; Cell viability percentage, A549 ([9]; Conc. 50 (µM per method)): 30,3521%; IC50 [9]: 17.22 ± 0.07 µM
2 | c1ccc2c(c1)[I+]c1ccccc1-2 [DPI, diphenyleneiodonium chloride, reference compound] | – | – | – | – | – | – | – | – | – | – | – | – | – | – | – | – | 0.71 ± 0.03 | – | – | – | NOS activity after incubation with inhibitor [10]: irreversibly inhibited; IC50 [11]: 3 ± 0.007 µM
3 | COc1ccc(C2Nc3c(Br)cc(I)cc3C(C)=[N+]2[O-])cc1 (stereo not drawn) [Compound 3p] | 73.66 ± 0.02 | 5.46 ± 0.004 | 0.78 ± 0.05 | 72,4624% | 70,8112% | 59,2339% | 43,212% | 27,8817% | 13.47 ± 0.06 | 173 to 174 | 59.02 ± 0.02 | 83.4 | 81.4 | 75.8 | 74.7 | 18.4 | 8.3 ± 0.04 | 15.51 ± 0.009 | 60.03 ± 0.014 | 45,0433% | Cell viability percentage, A549 ([9]; Conc. 5 (µM per method)): 44,7771%; Cell viability percentage, A549 ([9]; Conc. 10 (µM per method)): 43,6627%; Cell viability percentage, A549 ([9]; Conc. 25 (µM per method)): 42,5649%; Cell viability percentage, A549 ([9]; Conc. 50 (µM per method)): 39,3879%; IC50 [9]: 12.24 ± 0.02 µM
4 | CC1=[N+]([O-])C(c2ccccc2)Nc2ccc(Br)cc21 (stereo not drawn) [Compound 3a] | 5.33 ± 0.01 | 27.34 ± 0.04 | 1.08 ± 0.02 | 26,2641% | 26,1144% | 23,187% | 22,3387% | 19,6607% | 10.83 ± 0.09 | 158 to 160 | 40.18 ± 0.02 | 69.4 | 63.4 | 57.8 | 55.1 | 19 | 15 ± 10 | 5.24 ± 0.002 | 4.74 ± 0.027 | 66,8354% | Cell viability percentage, A549 ([9]; Conc. 5 (µM per method)): 57,3068%; Cell viability percentage, A549 ([9]; Conc. 10 (µM per method)): 54,0443%; Cell viability percentage, A549 ([9]; Conc. 25 (µM per method)): 41,1182%; Cell viability percentage, A549 ([9]; Conc. 50 (µM per method)): 30,5771%; IC50 [9]: 15.84 ± 0.07 µM

Source: paper PMC10669220, “In Vitro α-Glucosidase and α-Amylase Inhibition, Cytotoxicity and Free Radical Scavenging Profiling of the 6-Halogeno and Mixed 6,8-Dihalogenated 2-Aryl-4-methyl-1,2-dihydroquinazoline 3-Oxides” (Antioxidants, 2023)
